# Data taken from patent publication US7683077B2, “Piperidine derivative” (Ajinomoto Co., Inc., priority 2003, dated 2010).
# Target: T1, Human 5HT-7 (Homo sapiens, UniProt P34969)
# T1 construct: host or cells: CHO-K1 (h5HT7-C2 cells)
# Assay: Evaluation of 5HT-7 agonist activity using 5HT-7 expression cells (cAMP)
# Type: cell-based
# Conditions: cAMP in h5HT7-C2 CHO-K1 cells; 10 μM serotonin = 100%
# Description: Evaluation of 5HT-7 Agonist Activity Using 5HT-7 Expression Cells
# Then, the cAMP concentration was determined using a cAMP EIA kit (RPN225, Amersham) by the method in conformity of the attached protocol (Protocol 2. Acetylation EIA Procedure). […] The cAMP concentrations obtained with varied concentrations of the compound were expressed by percentage (%), and the relationship between the concentration of each compound and the cAMP (%) was approximated to a sigmoid curve. A concentration of the compound corresponding to the cAMP value that is a half the maximum value (Emax) on the approximated sigmoid curve was defined as the value of EC50.
# T1 sequence (P34969 1-445 isoform P34969-2): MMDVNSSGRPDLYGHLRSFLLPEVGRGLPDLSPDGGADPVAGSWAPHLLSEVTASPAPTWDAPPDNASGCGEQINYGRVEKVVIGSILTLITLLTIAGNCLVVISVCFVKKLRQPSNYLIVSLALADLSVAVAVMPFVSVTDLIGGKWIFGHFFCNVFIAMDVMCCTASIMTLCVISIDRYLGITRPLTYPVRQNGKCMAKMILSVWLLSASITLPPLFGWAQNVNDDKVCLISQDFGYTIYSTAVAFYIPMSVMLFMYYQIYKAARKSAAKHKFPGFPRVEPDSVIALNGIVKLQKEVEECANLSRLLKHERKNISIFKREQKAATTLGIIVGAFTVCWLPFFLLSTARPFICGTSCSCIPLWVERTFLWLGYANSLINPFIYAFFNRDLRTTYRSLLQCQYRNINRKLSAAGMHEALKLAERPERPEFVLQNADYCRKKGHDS
row,Structure (SMILES),EC50 [µM]
1,COc1ccc(OC)c(C(=C2CCNCC2)c2cccc(Cl)c2)c1 [Example 4],0.087

# Target: T2, Human 5-HT7a receptor (Homo sapiens, UniProt P34969)
# T2 construct: host or cells: CHO-K1 (h5HT7-C1 cells)
# Assay: Receptor binding assay (RBA) using 5HT-7 expression cells
# Conditions: not given
# Description: Receptor Binding Assay (RBA) Using 5HT-7 Expression Cells
# Human 5-HT7a receptor expression CHO—K1 cells (Euroscreen; h5HT7-C1 cells, No. ES-317-C) were cultured in an incubator (CO2: 5%) at 37° C., using Ham's F-12 culture medium containing 400 μg/ml G418, 100 U/ml penicillin, 100 μg/ml streptomycin, and 10% fetal bovine serum. After removal of the culture medium, the cells were washed with phosphate-buffered saline (PBS(−)) free of Ca^2+ and Mg^2+, and then peeled away from a petri dish using HMEE buffer (20 mM HEPES-KOH (pH7.4), 1 mM EDTA, 1 mM EGTA, 2 mM MgCl2). The cells thus collected were homogenized on ice using a Teflon homogenizer, centrifuged at 1,500×g for 5 minutes at 4° C., and the resultant supernatant liquid was then recovered. The supernatant liquid was further centrifuged at 12,000×g for 30 minutes at 4° C. The resultant precipitate was suspended in a HMEE buffer and the resultant suspension was dispensed and flash-frozen in liquid nitrogen. Thus, the frozen product was maintained at −80° C. and melted at room temperature when used in practice. In a 96-well polystyrene round-bottom plate (Falcon, No. 351190), a membrane preparation, the test compound, and 2-[^125I]-(+)-iodo-lysergic acid diethylamide (Perkin Elmer Life Science, No. NEX199) were reacted at room temperature for 3 hours in 50 μL of a binding buffer (50 mM HEPES-NaOH (pH7.4), 1 mM CaCl2, 5 mM MgCl2, 0.5% BSA) in each well. After completion of the reaction, the mixture was trapped by suction into a 96-well GF/B Unifilter plate (Perkin Elmer Life Science, No. 6005177), 50 μL of 0.05% polyethyleneimine being previously added to each well. Each well of the above-mentioned Unifilter plate was washed with about 200 μL of a washing buffer (50 mM HEPES-NaOH (pH7.4), 1 mM CaCl2, 5 mM MgCl2, 0.5 M NaCl, 0.05% Tween-20) three times, and dried overnight. Then, 30 μL of Microscint (Packard, No. NR6013611) was added to each well. The amount of bound 2-[^125I]-(+)-iodo-lysergic acid diethylamide was determined using Top Counter (Packard). The count obtained when 100 μM of crozapine was used as the test compound was fixed at 0%, while the count obtained when no compound was added was fixed at 100%. The binding ratios of 2-[^125I]-(+)-iodo-lysergic acid diethylamide obtained at varied concentrations of the compound were expressed by percentage (%), and the relationship between the concentration of each compound and the binding ratio (%) was approximated to a sigmoid curve. A concentration of the compound corresponding to the binding ratio 50% of 2-[^125I]-(+)-iodo-lysergic acid diethylamide was defined as the value of IC50.
# T2 sequence (P34969 1-445 isoform P34969-2): as above
row,Structure (SMILES),IC50 [µM]
1,CCN1CCC(=C(c2cccc(Cl)c2)c2cc(OC)ccc2OC)CC1 [Example 58],0.0158
2,COc1ccccc1C(=C1CCN(C)CC1)c1ccc(Cl)c(Cl)c1 [Example 54],0.0316

# Same assay, conditions: displacement of 2-[125I]-(+)-iodo-lysergic acid diethylamide, membranes of human 5-HT7a CHO-K1 cells; read-out: pIC50 (converted)
row,IC50 [µM],Structure (SMILES)
1,0.0398,COc1ccccc1C(=C1CCN(C)CC1)c1ccc(C)s1 [Example 56]
2,0.0398,COc1ccccc1C(=C1CCN(C)CC1)c1ccc(Cl)s1 [Example 55]
3,0.01,COc1ccccc1C(=C1CCN(CCNS(=O)(=O)c2cc(Cl)ccc2Cl)CC1)c1cccc(Cl)c1 [Example 49]
4,0.0316,COc1ccc(C)cc1C(=C1CCN(C)CC1)c1cccc(Cl)c1 [Example 57]
5,0.1,COc1ccccc1C(=C1CCN(CCCNC(=O)OC(C)(C)C)CC1)c1cccc(Cl)c1 [Example 36]

# Further lines, the compound ahead of its results:
row,Structure (SMILES),IC50 [µM]
1,CCCCN1CCC(=C(c2cccc(Cl)c2)c2cc(OC)ccc2OC)CC1 [Example 60],0.1
2,COc1ccc(OC)c(C(=C2CCNCC2)c2cccc(Cl)c2)c1 [Example 4],0.02
3,CCCN1CCC(=C(c2cccc(Cl)c2)c2ccccc2OC)CC1 [Example 7],0.0316
4,COc1ccccc1C(=C1CCN(C)CC1)c1cccc(Cl)c1 [Example 1],0.0398
